Some results are limits rather than exact numbers.

For the assay, the target named is T1, GPR119 (Homo sapiens, UniProt Q8TDV5).
T1 construct: host or cells: CHO-K1 (CRE-bla reporter, doxycycline-induced)
T1 sequence (Q8TDV5 1-335): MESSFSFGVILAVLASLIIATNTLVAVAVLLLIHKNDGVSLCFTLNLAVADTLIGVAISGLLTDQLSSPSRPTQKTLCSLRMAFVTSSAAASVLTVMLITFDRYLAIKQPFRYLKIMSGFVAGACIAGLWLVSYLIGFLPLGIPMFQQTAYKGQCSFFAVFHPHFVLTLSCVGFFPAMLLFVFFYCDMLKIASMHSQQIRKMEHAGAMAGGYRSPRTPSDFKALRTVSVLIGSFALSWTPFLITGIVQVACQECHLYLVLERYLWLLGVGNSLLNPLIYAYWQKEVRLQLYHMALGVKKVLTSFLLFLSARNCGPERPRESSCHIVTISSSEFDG
In words: Controlling Effect of GPR119 in CRE-bla CHO-K1 Cells (EC50). Type of assay: cell-based. Conditions: GPR119 CRE-bla CHO-K1 cell line, 5 hr incubation with compound, β-lactamase LiveBLAzer-FRET B/G readout; read-out: controlling effect against GPR119 in CRE-bla CHO-K1 cell line (EC50). Summed up:
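CHO-K1 cells carrying GPR119 and a CRE-β-lactamase reporter, induced with doxycycline for 16-20 h at 37° C, then exposed to compounds in 10-fold dilutions for 5 h. CCF4-AM FRET substrate added for 2 h at room temperature; blue/green fluorescence (409 ex, […]) read and EC50 derived.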
Broadly, the EC50 is the concentration at which the effect is half-maximal. Take `CCc1cnc(N2CCC(Nc3ncnc4c(-c5ccc(S(C)(=O)=O)cc5)csc34)CC2)nc1` [Example 111, N-(1-(5-ethylpyrimidin-2-yl)piperidin-4-yl)-7-(4-methanesulfonyl-phenyl)thieno[3,2-d]pyrimidin-4-amine]: the EC50 is above 1000 nM.

Consider `CC(C)(C)OC(=O)N1CCN(c2ncnc3c(-c4ccc(S(C)(=O)=O)cc4)csc23)CC1` [Example 10, tert-butyl 4-(7-(4-methanesulfonyl-phenyl)thieno[3,2-d]pyrimidin-4-yl)piperazine-1-carboxylate], for which the half-maximal effective concentration (EC50) is 100 to 1000 nM. The figure for `CC(C)c1noc(N2CCC(Oc3ncnc4c(-c5ccc(S(C)(=O)=O)cc5F)csc34)CC2)n1` [Example 60, 7-(2-fluoro-4-methanesulfonyl-phenyl)-4-[1-(3-isopropyl-[1,2,4]oxadiazol-5-yl)piperidin-4-yloxy]thieno[3,2-d]pyrimidine] is below 100 nM; for `CS(=O)(=O)c1ccc(-c2csc3c(NC4CCNCC4)ncnc23)cc1` [Example 110, 7-(4-methanesulfonyl-phenyl)-N-(piperidin-4-yl)thieno[3,2-d]pyrimidin-4-amine] it is above 1000 nM. As to `CC(C)c1noc(N2CCC(Oc3ncnc4c(-c5ccc(SC(F)(F)F)cc5)csc34)CC2)n1` [Example 100, 4-[1-(3-isopropyl-[1,2,4]oxadiazol-5-yl)-piperidin-4-yloxy]-7-(4-trifluoromethylsulfanyl-phenyl)-thieno[3,2-d]pyrimidine], the concentration giving a half-maximal response (EC50) was above 1000 nM. For the compound `CCN(c1ncnc2c(-c3ccc(S(C)(=O)=O)cc3)csc12)C1CCN(c2ccc(C(F)(F)F)cn2)CC1` [Example 115, Ethyl-[7-(4-methanesulfonyl-phenyl)-thieno[3,2-d]pyrimidin-4-yl]-(5′-trifluoromethyl-3,4,5,6-tetrahydro-2H-[1,2′]bipyridinyl-4-yl)amine], the EC50 is above 1000 nM. As to `CCc1cnc(N2CCC(Oc3ncnc4c(-c5ccc(S(C)(=O)=O)cc5F)cn(CC)c34)CC2)nc1` [Example 33, 5-ethyl-4-(1-(5-ethylpyrimidin-2-yl)piperidin-4-yloxy)-7-(2-fluoro-4-methanesulfonyl-phenyl)-5H-pyrrolo[3,2-d]pyrimidine], the concentration for a half-maximal effect (EC50) was below 100 nM.

Take `Cn1cc(-c2ccc(F)nc2)c2ncnc(OC3CCN(C(=O)OC(C)(C)C)CC3)c21` [Example 47, tert-butyl 4-(7-(6-fluoropyridin-3-yl)-5-methyl-5H-pyrrolo[3,2-d]pyrimidin-4-yloxy)piperidine-1-carboxylate]: the EC50 was above 1000 nM.

Consider `CS(=O)(=O)c1ccc(-c2csc3c(N4CCC(c5nc(C6CC6)no5)CC4)ncnc23)c(F)c1` [Example 18, 4-[4-(3-cyclopropyl-[1,2,4]oxadiazol-5-yl)-piperidin-1-yl]-7-(2-fluoro-4-methanesulfonyl-phenyl)-thieno[3,2-d]pyrimidine], for which the EC50 was below 100 nM. `Cn1cc(-c2ccc(-n3cnnn3)cc2)c2ncnc(OC3CCN(C(=O)OC(C)(C)C)CC3)c21` [Example 120, tert-butyl 4-(7-(4-(1H-tetrazol-1-yl)phenyl)-5-methyl-5H-pyrrolo[3,2-d]pyrimidin-4-yloxy)piperidin-1-carboxylate]: the EC50 was below 100 nM. The figure for `CC(C)c1noc(N2CCC(Oc3ncnc4c(-c5ccc(S(C)(=O)=O)cc5)csc34)CC2)n1` [Example 51] is below 100 nM; for `CC(C)c1noc(N2CC[C@H](Oc3ncnc4c(-c5ccc(S(C)(=O)=O)cc5)cn(C)c34)C2)n1` [Example 38, 4-[1-(3-isopropyl-[1,2,4]oxadiazol-5-yl)-pyrrolidin-3-yloxy]-7-(4-methanesulfonyl-phenyl)-5-methyl-5H-pyrrolo[3,2-d]pyrimidine] it is above 1000 nM. In the case of `CN(c1ncnc2c(-c3ccc(S(C)(=O)=O)cc3)csc12)C1CCN(C(=O)OC(C)(C)C)CC1` [Example 112, tert-butyl 4-(methyl(7-(4-methanesulfonyl-phenyl)thieno[3,2-d]pyrimidin-4-yl)amino)piperidin-1-carboxylate] it was below 100 nM. In the case of `CS(=O)(=O)c1ccc(-c2csc3c(N4CCCC4)ncnc23)cc1` [Example 2, 7-(4-methanesulfonyl-phenyl)-4-(pyrrolidin-1-yl)thieno[3,2-d]pyrimidine] it was above 1000 nM; in that of `CS(=O)(=O)c1ccc(-c2csc3c(OC4CCN(c5nc(C6CC6)no5)CC4)ncnc23)c(F)c1` [Example 63, 7-(2-fluoro-4-methanesulfonyl-phenyl)-4-[1-(3-cyclopropyl-[1,2,4]oxadiazol-5-yl)piperidin-4-yloxy]thieno[3,2]pyrimidine], below 100 nM; in that of `CCc1cnc(N2CCC(Oc3ncnc4c(-c5ccc(S(C)(=O)=O)cc5)cn(CC)c34)CC2)nc1` [Example 32, 5-ethyl-4-(1-(5-ethylpyrimidin-2-yl)piperidin-4-yloxy)-7-(4-methanesulfonyl-phenyl)-5H-pyrrolo[3,2-d]pyrimidine], below 100 nM.

In the case of `CC(C)c1noc(N2CCC(Oc3ncnc4c(-c5ccc(OC(F)(F)F)cc5)csc34)CC2)n1` [Example 99, 4-[1-(3-isopropyl-[1,2,4]oxadiazol-5-yl)-piperidin-4-yloxy]-7-(4-trifluoromethoxy-phenyl)-thieno[3,2-d]pyrimidine], the concentration giving a half-maximal response (EC50) fell in the range of 100 to 1000 nM.

Regarding `Cn1cc(-c2ccc(S(C)(=O)=O)cc2)c2ncnc(OC3CCN(C(=O)NC(C)(C)C)CC3)c21` [Example 40, 4-[7-(4-methanesulfonyl-phenyl)-5-methyl-5H-pyrrolo[3,2-d]pyrimidin-4-yloxy]piperidin-1-carboxylic acid tert-butylamide], the EC50 was 100 to 1000 nM. As to `CS(=O)(=O)c1ccc(-c2csc3c(N4CCCCC4)ncnc23)cc1` [Example 3, 7-(4-methanesulfonyl-phenyl)-4-(piperidin-1-yl)thieno[3,2-d]pyrimidine], the EC50 was above 1000 nM.

Take `CCc1cnc(N2CCC(Oc3ncnc4c(-c5ccc(-n6cnnn6)cc5)cn(C)c34)CC2)nc1` [Example 122, 7-(4-(1H-tetrazol-1-yl)phenyl)-4-(1-(5-ethylpyrimidin-2-yl)piperidin-4-yloxy)-5-methyl-5H-pyrrolo[3,2-d]pyrimidine]: the EC50 is below 100 nM. Turning to `CS(=O)(=O)c1ccc(-c2csc3c(OC4CCN(c5nc(-c6cnccn6)no5)CC4)ncnc23)c(F)c1` [Example 68, 5-(4-(7-(2-fluoro-4-methanesulfonyl-phenyl)thieno[3,2-d]pyrimidin-4-yloxy)piperidin-1-yl)-3-(pyrazin-2-yl)-1,2,4-oxadiazole], the EC50 was 100 to 1000 nM. In the case of `CC(C)(C)c1noc(C2CCN(c3ncnc4c(-c5ccc(S(C)(=O)=O)cc5F)csc34)CC2)n1` [Example 17, 4-[4-(3-tert-butyl-[1,2,4]oxadiazol-5-yl)-piperidin-1-yl]-7-(2-fluoro-4-methanesulfonyl-phenyl)-thieno[3,2-d]pyrimidine] it was below 100 nM. In the case of `CC(C)c1noc(N2CCN(c3ncnc4c(-c5ccc(S(C)(=O)=O)cc5)csc34)CC2)n1` [Example 9, 3-isopropyl-5-(4-(7-(4-methanesulfonyl-phenyl)thieno[3,2-d]pyrimidin-4-yl)piperazin-1-yl)-1,2,4-oxadiazole] it was 100 to 1000 nM; in that of `CC(C)c1noc(N2CCC(Oc3ncnc4c(-c5ccc([N+](=O)[O-])cc5)cn(C)c34)CC2)n1` [Example 42, 3-isopropyl-5-(4-(5-methyl-7-(4-nitrophenyl)-5H-pyrrolo[3,2-d]pyrimidin-4-yloxy)piperidin-1-yl)-1,2,4-oxadiazole], above 1000 nM; in that of `CS(=O)(=O)c1ccc(-c2csc3c(OC4CCN(c5nc(CC6CC6)no5)CC4)ncnc23)c(F)c1` [Example 69, 7-(2-fluoro-4-methanesulfonyl-phenyl)-4-[1-(3-cyclopropylmethyl-[1,2,4]oxadiazol-5-yl)piperidin-4-yloxy]thieno[3,2-d]pyrimidine], below 100 nM. Regarding `CCCc1cnc(N2CCC(Oc3ncnc4c(-c5ccc(S(C)(=O)=O)cc5F)cn(CC)c34)CC2)nc1` [Example 34, 5-ethyl-7-(2-fluoro-4-methanesulfonyl-phenyl)-4-(1-(5-propylpyrimidin-2-yl)piperidin-4-yloxy)-5H-pyrrolo[3,2-d]pyrimidine], the EC50 is below 100 nM. The figure for `CCc1cnc(N2CC[C@H](Oc3ncnc4c(-c5ccc(S(C)(=O)=O)cc5)cn(C)c34)C2)nc1` [Example 39, 4-[1-(5-ethylpyrimidin-2-yl)-pyrrolidin-3-yloxy]-7-(4-methanesulfonyl-phenyl)-5-methyl-5H-pyrrolo[3,2-d]pyrimidine] is 100 to 1000 nM; for `Cn1cc(-c2ccc(S(C)(=O)=O)cc2)c2ncnc(OC3CCNCC3)c21` [Example 26, 5-methyl-7-(4-methanesulfonyl-phenyl)-4-(piperidin-4-yloxy)-5H-pyrrolo[3,2-d]pyrimidine] it is above 1000 nM; for `Cn1cc(-c2ccc(-n3cnnn3)cc2)c2ncnc(O[C@H]3CCN(C(=O)OC(C)(C)C)C3)c21` [Example 125, (S)-tert-butyl 3-[5-methyl-7-(4-tetrazol-1-yl-phenyl)-5H-pyrrolo[3,2-d]pyrimidin-4-yloxy)pyrrolidin-1-carboxylate] it is above 1000 nM. `CS(=O)(=O)c1ccc(-c2csc3c(N4CCC(c5nc(C6CC6)no5)CC4)ncnc23)cc1` [Example 1, 3-cyclopropyl-5-(1-(7-(4-methanesulfonyl-phenyl)thieno[3,2-d]pyrimidin-4-yl)piperidin-4-yl)-1,2,4-oxadiazole]: the half-maximal effective concentration (EC50) was below 100 nM.

The values are drawn from patent US8853213B2, “Bicyclic compound for modulating G protein-coupled receptors” (Hanmi Pharm. Co., Ltd, priority 2011, dated 2014).
